Results: patent publication US12636274B2, “Pharmaceutical compositions and methods for systemic treatment of solid tumors” (7 HILLS INTERESTS LLC, priority 2014, dated 2026)

Experiments:
α5β1/Fibronectin = α5β1/Fibronectin (Homo sapiens, UniProt P05556+P08648); test: Integrin activation, adhesion α5β1/Fibronectin; type: cell-based; conditions: 50% serum; n = 3; read-out: Integrin Selectivity EC50 α5β1/Fibronectin
Text: Activating all integrins is necessary for firm endothelial cell adhesion for extravasation.

[1] = test system: CT26 colon cancer syngeneic tumor; test: Study 1: CT26 syngeneic tumor model in Balb/c mice; type: in vivo, Mouse (Mus musculus)
Experimental: Mouse colon carcinoma CT26 cells were obtained from American Type Culture Collection (ATCC), USA. Cells were grown in RPMI-1640 medium (Sigma, Cat # R6504) supplemented with 10% FBS (Invitrogen, Cat #10438-026), and 1% penicillin streptomycin (Thermo Fisher Scientific, Cat #15140-122). To establish allografts, 1 million CT26 cells were suspended in 50 μL of serum-free medium and mixed at 1:1 ratio with matrigel before implanting subcutaneously into the right flank of mice.
Prior to inoculation, the skin on the injection site was swabbed with alcohol. To establish allografts, CT26 cells were suspended in serum free medium at a concentration of (1×10^6)/50 μL, mixed with equal volume of matrigel (1:1 ratio) and 100 μL of this mixture was injected to each mouse by subcutaneous implantation using a 1 mL BD syringe attached to a 24 gauge needle.
CT26 tumor xenografts were measured after approximately 1 week of cell inoculation when they become palpable. When the average tumor volume reaches around 110 mm^3, animals were randomized into treatment groups group maintaining the average tumor volume of each group similar across groups for Study 1 and Study 2. In Study 3, the animals were randomized on the basis of body weights +1 day post cell implantation.
Tumor dimensions (length and breadth) were measured on days 0 (animal randomization based on tumor volume) and thrice weekly thereafter until study termination. Tumor volumes were calculated using the formula (b^2*l)*0.52 where l=length, b=breadth (Dusan Djokovic et al., BMC Cancer, 2010, 10:641). Tumor growth inhibition was calculated after normalizing the tumor volume on a given day to that on day 1.
Mean body weight loss and percent changes were calculated for each group. Similarly, mean tumor volume and percent tumor growth inhibition were calculated. The percent tumor growth inhibition (% TGI) as a function of anti-tumor efficacy were computed with respect to untreated vehicle control by comparing to the tumor volumes of day 1 using formula described below: % TGI=[1−(Treatment TVFinal−Treatment TVInitial)/(Control TVFinal−Control TVInitial)]*100
The test agent, Compound 1 was evaluated in CT26 syngeneic tumor model in Balb/c mice. Compound 1 was administered in mice when the starting tumor volume reached 109±7.1 mm^3 eight days after implantation of CT26 cells.

α5β1/Fibronectin, sequence (P08648 42-894 limits assumed): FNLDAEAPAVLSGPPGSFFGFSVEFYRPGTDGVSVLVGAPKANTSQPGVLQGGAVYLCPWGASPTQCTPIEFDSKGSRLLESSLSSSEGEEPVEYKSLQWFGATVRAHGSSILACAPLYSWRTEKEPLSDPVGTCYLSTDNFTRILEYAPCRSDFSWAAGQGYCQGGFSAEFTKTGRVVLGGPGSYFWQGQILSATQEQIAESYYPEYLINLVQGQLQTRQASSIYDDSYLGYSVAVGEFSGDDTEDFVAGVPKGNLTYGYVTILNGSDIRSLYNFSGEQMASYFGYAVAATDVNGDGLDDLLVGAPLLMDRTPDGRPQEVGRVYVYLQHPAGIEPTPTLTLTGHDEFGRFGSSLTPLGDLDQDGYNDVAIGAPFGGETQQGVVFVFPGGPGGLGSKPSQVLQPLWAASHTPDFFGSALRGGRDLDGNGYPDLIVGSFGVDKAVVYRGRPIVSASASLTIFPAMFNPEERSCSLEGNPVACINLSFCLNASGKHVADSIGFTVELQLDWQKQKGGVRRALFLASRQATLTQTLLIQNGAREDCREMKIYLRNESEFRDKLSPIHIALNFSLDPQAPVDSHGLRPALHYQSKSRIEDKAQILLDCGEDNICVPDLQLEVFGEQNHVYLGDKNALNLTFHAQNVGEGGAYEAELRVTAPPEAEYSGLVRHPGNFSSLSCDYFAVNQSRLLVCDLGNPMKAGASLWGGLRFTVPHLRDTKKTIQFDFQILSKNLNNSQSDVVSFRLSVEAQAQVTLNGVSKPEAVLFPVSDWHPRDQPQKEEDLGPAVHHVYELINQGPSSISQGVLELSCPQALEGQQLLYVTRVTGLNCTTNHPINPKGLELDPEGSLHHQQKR
α5β1/Fibronectin, sequence (P08648 895-1049 limits assumed): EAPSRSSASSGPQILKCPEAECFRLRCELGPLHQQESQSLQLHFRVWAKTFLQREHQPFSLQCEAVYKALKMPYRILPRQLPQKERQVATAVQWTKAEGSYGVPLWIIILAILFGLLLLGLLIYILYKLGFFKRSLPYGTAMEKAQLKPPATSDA
α5β1/Fibronectin, sequence (P05556 21-798): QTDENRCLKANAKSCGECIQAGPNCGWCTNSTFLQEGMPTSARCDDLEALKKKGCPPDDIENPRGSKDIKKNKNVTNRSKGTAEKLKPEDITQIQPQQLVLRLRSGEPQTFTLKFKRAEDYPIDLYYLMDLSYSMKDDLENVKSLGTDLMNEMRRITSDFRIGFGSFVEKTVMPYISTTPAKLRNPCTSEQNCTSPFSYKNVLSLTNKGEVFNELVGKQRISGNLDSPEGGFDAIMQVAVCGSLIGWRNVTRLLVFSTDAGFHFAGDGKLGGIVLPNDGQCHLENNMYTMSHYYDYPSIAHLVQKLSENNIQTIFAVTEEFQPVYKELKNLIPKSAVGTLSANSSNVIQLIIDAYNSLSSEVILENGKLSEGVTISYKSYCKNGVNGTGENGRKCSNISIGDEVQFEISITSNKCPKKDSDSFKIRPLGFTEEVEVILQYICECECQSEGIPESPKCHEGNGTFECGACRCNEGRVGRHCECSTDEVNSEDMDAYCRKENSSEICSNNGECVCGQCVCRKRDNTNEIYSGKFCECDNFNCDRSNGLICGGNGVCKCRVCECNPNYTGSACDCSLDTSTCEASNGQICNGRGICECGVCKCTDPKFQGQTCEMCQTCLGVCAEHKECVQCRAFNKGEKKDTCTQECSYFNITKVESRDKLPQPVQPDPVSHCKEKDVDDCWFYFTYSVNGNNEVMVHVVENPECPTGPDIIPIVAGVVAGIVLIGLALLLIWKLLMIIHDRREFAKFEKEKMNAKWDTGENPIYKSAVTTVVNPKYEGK

## O=C(OCCOCCOCCOC(=O)N(Cc1cccs1)Cc1cccs1)N(Cc1cccs1)Cc1cccs1 [Compound 1, 3-oxo-1-(2-thienyl)-2-(2-thienylmethyl)-4,7,10-trioxa-2-azadodecan-12-yl bis(2-thienylmethyl)carbamate]
α5β1/Fibronectin
  EC50: 7.7 ± 2.3 µM
[1]; Study 1, 1 mg/kg IP QD at 4 h, Day 4
  % Tumor Growth Inhibition: 36.1%
[1]; Study 1, 1 mg/kg IP QD at 4 h, Day 6
  % Tumor Growth Inhibition: 41.4%
[1]; Study 1, 1 mg/kg IP QD at 4 h, Day 8
  % Tumor Growth Inhibition: 61.5%
[1]; Study 1, 1 mg/kg IP QD at 4 h, Day 11
  % Tumor Growth Inhibition: 64.4%
[1]; Study 1, 1 mg/kg IP QD at 4 h, Day 13
  % Tumor Growth Inhibition: 55.4%
[1]; Study 1, 20 mg/kg PO QD at 4 h, Day 4
  % Tumor Growth Inhibition: −6.1%
[1]; Study 1, 20 mg/kg PO QD at 4 h, Day 6
  % Tumor Growth Inhibition: 16.5%
[1]; Study 1, 20 mg/kg PO QD at 4 h, Day 8
  % Tumor Growth Inhibition: 38.2%
[1]; Study 1, 20 mg/kg PO QD at 4 h, Day 11
  % Tumor Growth Inhibition: 42.2%
[1]; Study 1, 20 mg/kg PO QD at 4 h, Day 13
  % Tumor Growth Inhibition: 36.2%
[1]; Study 1, oral (20 mg/kg QD) and intraperitoneal (1 mg/kg QD) routes
  tolerability in term of body weights of animals: well tolerated
[1]; single agent, orally or intraperitoneally once daily for up to 30 days
  growth of established CT26 tumors: delayed the growth
